Consider 18 compounds from patent publication US6117841A, “Substituted peptidylamine calcium channel blockers” (Warner-Lambert Company, priority 1999, dated 2000).

Like-named read-outs stand apart in the source and are kept apart here.

The target in the assay is T1, N-type Ca^2+ Channel (Homo sapiens, UniProt Q00975).
T1 construct: host or cells: IMR-32 cells differentiated with dibutyryl cAMP and bromodeoxyuridine
As to the kind of experiment: Measurement of N-type Ca2+ channel blocking potencies in IMR-32 cells using the fluorescent Ca2+ indicator Indo-1. The assay is classed as cell-based. The settings on record: for IC50: K+ depolarization, 5 μM nitrendipine to block L-type channels, read-out: IMR 32 IC50. As for the experimental part: Measurement of N-type Ca^2+ Channel Blocking Potencies of Compounds in IMR-32 Cells Using the Fluorescent Ca^2 + Indicator Indo-1
IMR-32 cells are a human tumoral cell line of neural origin. […] Calcium flux into these cells may be induced by stimulation with elevated potassium concentrations. The L-channel component of calcium flux may be blocked by adding 5 μM nitrendipine. The remaining component of calcium entry into the IMR-32 cells is due to calcium flux through N-type calcium channels. Intracellular calcium concentrations are measured using the fluorescent calcium indicator Indo-1. The effect of drug concentration on calcium uptake is studied.
The IMR-32 cell line was obtained from the American Type Culture Collection (Rockville, Md.). Cells were grown in Eagle's Minimum Essential Medium with Earle's salts supplemented with 10% fetal bovine serum, 2 mM L-Gln and antibiotic/antimycotic mixture (Gibco). At approximately 80% confluency, differentiation was induced by the addition of 1 mM dibutyryl cAMP and 2.5 μM bromodeoxyuridine to the medium. After 7 to 13 days of differentiation, cells were detached using 0.5 mM EDTA and loaded with 5 μM Indo-1 acetoxymethyl ester (Molecular Probes, Eugene, Oreg.) at 30° C. for 45 minutes. Loaded cells were washed twice, resuspended (~10^7 cells/mL) in assay buffer (10 mM HEPES/Tris pH 7.4 in Hank's Balanced Salt Solution without bicarbonate or phenol red containing 0.5% bovine serum albumin) and kept on ice until use. Fluorescence measurements were carried out in a Photon Technology International (PTI, South Brunswick, N.J.) Model RF-F3004 spectrofluorometer with dual emission monochromators using excitation at 350 nm and emission at 400 and 490 nm. The instrument was equipped with a thermostated cuvette holder with stirring capabilities as well as with a computer-controlled pump which allowed for reagent addition during measurement. Instrument control and data collection was done by PTI's OSCAR software running on an IBM compatible computer. Different concentrations of the test compounds (60 μL in dimethyl sulfoxide) were added to 5.94 mL of assay buffer containing approximately 3×10^6 loaded cells, and 5 μM nitrendipine (in 30 μL EtOH) to block L-type Ca^2+ channels. Samples were incubated for 10 minutes at 30° C. and then aliquoted into three 10×10 mm disposable acrylic cuvettes. Emission signals at 400 and 490 nm were acquired from each cuvette at 30° C. for 50 seconds. At 20 seconds after the start of reading, cells were depolarized by the addition of 160 μL of stimulation solution (1 M KCl, 68 mM CaCl2) to the cuvette via the computer-controlled pump. Ratio of dual emission signals (400 nm/ 490 nm), which is proportional to intracellular Ca^2+ concentration, was plotted against time, and the difference between maximal response after stimulation and basal value (before stimulation) was determined. Values obtained in this way were plotted as a function of drug concentration. IC50 values of test compounds were calculated by fitting a four-parameter logistic function to the data using the least squares method.

Where [1] appears, read: 1 μM, IMR-32 cells, 5 μM nitrendipine.
[2] abbreviates: 10 μM, IMR-32 cells, 5 μM nitrendipine.

T1 sequence (Q00975 whole entry): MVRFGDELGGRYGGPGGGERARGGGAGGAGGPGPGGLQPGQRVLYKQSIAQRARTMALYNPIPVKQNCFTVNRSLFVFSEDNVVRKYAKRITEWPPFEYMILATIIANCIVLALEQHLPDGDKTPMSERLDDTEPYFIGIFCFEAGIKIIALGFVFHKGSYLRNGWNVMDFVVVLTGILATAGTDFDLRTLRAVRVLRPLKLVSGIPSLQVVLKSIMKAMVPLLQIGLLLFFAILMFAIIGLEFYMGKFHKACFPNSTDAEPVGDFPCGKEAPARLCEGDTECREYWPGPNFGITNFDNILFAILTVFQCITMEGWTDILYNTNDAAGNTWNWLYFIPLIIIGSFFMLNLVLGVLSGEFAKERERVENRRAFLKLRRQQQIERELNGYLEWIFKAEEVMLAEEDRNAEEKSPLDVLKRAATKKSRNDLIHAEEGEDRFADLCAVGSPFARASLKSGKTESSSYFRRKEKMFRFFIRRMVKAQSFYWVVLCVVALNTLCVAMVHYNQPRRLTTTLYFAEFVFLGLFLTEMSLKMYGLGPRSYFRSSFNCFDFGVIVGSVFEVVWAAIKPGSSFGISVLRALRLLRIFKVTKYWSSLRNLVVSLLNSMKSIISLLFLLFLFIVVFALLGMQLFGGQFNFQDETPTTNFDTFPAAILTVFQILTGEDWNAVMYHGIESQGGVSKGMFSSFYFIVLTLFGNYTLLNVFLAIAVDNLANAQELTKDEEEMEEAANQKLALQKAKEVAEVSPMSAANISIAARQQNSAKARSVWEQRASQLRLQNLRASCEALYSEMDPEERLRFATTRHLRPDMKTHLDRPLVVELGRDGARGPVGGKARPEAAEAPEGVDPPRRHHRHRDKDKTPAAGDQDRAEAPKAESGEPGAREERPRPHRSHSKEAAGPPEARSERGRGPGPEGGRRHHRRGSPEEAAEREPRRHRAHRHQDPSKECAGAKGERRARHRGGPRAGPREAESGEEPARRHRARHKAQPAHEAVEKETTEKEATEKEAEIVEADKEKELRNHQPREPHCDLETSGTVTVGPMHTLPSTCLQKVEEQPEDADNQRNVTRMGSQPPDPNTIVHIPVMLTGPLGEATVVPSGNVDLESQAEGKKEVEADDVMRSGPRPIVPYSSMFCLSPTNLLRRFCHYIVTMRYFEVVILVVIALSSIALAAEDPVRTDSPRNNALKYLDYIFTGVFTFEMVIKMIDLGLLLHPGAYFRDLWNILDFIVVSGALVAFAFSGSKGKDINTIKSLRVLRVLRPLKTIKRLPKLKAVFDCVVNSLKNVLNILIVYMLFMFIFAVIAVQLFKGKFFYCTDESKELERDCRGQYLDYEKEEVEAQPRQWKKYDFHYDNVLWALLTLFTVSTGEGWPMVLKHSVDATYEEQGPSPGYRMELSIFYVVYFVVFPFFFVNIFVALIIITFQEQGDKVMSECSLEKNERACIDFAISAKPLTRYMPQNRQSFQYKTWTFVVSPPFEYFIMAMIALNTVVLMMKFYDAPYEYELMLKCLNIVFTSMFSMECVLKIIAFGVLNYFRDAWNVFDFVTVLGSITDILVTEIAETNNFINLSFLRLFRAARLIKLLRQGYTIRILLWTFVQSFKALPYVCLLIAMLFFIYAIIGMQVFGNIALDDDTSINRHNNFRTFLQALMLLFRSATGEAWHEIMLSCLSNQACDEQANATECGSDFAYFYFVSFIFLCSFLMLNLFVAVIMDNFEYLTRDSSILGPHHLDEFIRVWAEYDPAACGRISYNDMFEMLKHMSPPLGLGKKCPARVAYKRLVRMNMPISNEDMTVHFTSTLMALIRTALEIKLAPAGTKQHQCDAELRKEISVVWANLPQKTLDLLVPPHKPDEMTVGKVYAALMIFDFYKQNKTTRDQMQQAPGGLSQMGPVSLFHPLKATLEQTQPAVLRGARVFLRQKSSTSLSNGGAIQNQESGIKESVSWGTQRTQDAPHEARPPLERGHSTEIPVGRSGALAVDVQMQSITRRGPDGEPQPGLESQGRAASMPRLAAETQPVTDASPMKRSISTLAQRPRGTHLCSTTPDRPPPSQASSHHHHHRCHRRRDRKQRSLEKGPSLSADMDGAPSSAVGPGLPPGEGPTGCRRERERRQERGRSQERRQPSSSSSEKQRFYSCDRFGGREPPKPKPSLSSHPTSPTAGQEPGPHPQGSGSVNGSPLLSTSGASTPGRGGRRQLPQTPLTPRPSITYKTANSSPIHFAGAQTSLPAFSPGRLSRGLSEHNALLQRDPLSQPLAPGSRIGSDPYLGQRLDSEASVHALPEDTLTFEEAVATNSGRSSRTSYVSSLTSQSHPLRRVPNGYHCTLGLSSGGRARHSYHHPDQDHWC
T1 sequence (P54284 whole entry partner): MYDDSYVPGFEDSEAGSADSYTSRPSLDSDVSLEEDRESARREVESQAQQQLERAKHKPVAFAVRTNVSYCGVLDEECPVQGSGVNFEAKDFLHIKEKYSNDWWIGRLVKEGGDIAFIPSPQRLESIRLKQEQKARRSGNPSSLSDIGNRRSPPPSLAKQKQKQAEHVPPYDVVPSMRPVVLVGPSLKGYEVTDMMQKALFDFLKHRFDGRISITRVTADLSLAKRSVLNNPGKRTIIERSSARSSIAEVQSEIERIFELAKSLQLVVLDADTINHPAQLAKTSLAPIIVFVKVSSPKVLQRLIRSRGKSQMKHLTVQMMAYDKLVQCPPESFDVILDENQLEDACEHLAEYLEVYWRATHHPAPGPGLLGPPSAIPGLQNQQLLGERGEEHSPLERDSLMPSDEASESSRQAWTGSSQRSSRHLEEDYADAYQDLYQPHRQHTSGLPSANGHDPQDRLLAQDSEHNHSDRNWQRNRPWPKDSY
T1 sequence (P54289 25-946 partner limits assumed): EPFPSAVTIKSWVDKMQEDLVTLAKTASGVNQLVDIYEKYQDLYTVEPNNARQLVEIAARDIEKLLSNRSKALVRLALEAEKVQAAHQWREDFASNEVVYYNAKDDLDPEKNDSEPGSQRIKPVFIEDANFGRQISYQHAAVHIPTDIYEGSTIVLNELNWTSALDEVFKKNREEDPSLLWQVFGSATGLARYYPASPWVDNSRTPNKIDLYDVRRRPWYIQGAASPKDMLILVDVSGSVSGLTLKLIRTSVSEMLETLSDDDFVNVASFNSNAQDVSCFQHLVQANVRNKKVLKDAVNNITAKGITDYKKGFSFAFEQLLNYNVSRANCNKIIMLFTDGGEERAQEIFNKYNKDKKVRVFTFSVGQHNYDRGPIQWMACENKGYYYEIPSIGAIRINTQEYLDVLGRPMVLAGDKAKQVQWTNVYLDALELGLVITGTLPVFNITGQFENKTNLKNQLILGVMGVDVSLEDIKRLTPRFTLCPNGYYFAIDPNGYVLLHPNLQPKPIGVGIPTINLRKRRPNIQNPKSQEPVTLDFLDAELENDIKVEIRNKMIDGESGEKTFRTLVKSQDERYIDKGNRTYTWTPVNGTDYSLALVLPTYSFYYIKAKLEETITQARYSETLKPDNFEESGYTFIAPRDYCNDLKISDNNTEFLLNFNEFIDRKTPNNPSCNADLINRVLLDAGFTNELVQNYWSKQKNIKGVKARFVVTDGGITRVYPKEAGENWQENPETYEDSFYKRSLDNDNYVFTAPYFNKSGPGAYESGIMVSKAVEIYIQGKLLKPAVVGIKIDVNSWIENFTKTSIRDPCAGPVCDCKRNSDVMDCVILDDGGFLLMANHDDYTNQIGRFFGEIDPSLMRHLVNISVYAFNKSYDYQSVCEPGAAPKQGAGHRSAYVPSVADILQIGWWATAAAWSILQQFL
T1 sequence (P54289 947-1103 partner limits assumed): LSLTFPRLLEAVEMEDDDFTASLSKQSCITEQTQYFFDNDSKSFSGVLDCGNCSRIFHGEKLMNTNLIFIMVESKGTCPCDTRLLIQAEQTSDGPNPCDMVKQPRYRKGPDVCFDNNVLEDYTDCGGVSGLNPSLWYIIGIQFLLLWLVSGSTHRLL

Take `CC(C)C[C@@H](C(=O)N[C@@H](Cc1ccc(OCc2ccccc2)cc1)C(=O)NC(C)(C)C)N(C)C(C)CO` (mixture of isomers) [Example 88, [S-[R*,R*,(RS)]]-2-[(2-Hydroxy-1-methyl-ethyl)-methyl-amino]-4-methyl-pentanoic acid [2-(4-benzyloxy-phenyl)-1-tert-butylcarbamoyl-ethyl]-amide]: the “IMR 32 % of Blockade @ 1 μM” value under setting [1] was determined as 30%.

Usually IC50 stands for the point on the concentration scale where inhibition reaches its midpoint. Take `CC(C)C[C@@H](C(=O)N[C@@H](Cc1ccc(OCc2ccccc2)cc1)C(=O)NC(C)(C)C)N(C)C` (relative stereo) [Example 1, [S-(R*,R*)]-2-Dimethylamino-4-methyl-pentanoic acid [2-(4-benzyloxy-phenyl)-1-tert-butylcarbamoyl-ethyl]-amide]: the IC50 (IMR-32 cells) came to 2300 nM. Consider `CC(C)C[C@@H](C(=O)N[C@@H](Cc1ccc(OCc2ccccc2)cc1)C(=O)N1CCCCC1)N(C)C` (relative stereo) [Example 2, [S-(R*,R*)]-2-Dimethylamino-4-methyl-pentanoic acid [2-(4-benzyloxy-phenyl)-1-(piperidine-1-carbonyl)-ethyl]-amide], for which, under setting [1], the “IMR 32 % of Blockade @ 1 μM” value is recorded as 36%. The “IMR 32 % of Blockade @ 10 μM” value under setting [2] was 92%. With `CC(C)C[C@@H](C(=O)N[C@@H](Cc1ccc(OCc2ccccc2)cc1)C(=O)NCCN1CCCCC1)N(C)C` (relative stereo) [Example 3, [S-(R*,R*)]-2-Dimethylamino-4-methyl-pentanoic acid [2-(4-benzyloxy-phenyl)-1-(2-piperidin-1-yl-ethylcarbamoyl)-ethyl]-amide], the “IMR 32 % of Blockade @ 1 μM” value under setting [1] came out at 21%. For the same compound, the “IMR 32 % of Blockade @ 10 μM” value under setting [2] is recorded as 70%. On to `CC(C)C[C@@H](C(=O)N[C@@H](Cc1ccc(OCc2ccccc2)cc1)C(=O)N1CCN(Cc2ccccc2)CC1)N(C)C` (relative stereo) [Example 4, [S-(R*,R*)]-2-Dimethylamino-4-methyl-pentanoic acid [1-(4-benzyloxy-benzyl)-2-(4-benzyl-piperazin-1-yl)-2-oxo-ethyl]-amide], for which, under setting [1], the “IMR 32 % of Blockade @ 1 μM” value was found to be 50%. Further, the “IMR 32 % of Blockade @ 10 μM” value under setting [2] is given as 94%. With `CC(C)C[C@@H](C(=O)N[C@@H](Cc1ccc(OCc2ccccc2)cc1)C(=O)NC1CCN(Cc2ccccc2)CC1)N(C)C` (relative stereo) [Example 5, [S-(R*,R*)]-2-Dimethylamino-4-methyl-pentanoic acid [2-(4-benzyloxy-phenyl)-1-(1-benzyl-piperidin-4-yl-carbamoyl)-ethyl]-amide], under setting [1], the “IMR 32 % of Blockade @ 1 μM” value stood at 24%. For the same compound, the “IMR 32 % of Blockade @ 10 μM” value under setting [2] is 81%. Take `CC(C)C[C@@H](C(=O)N[C@@H](Cc1ccc(OCc2ccccc2)cc1)C(=O)N1CCN(C)CC1)N(C)C` (relative stereo) [Example 6, [S-(R*,R*)]-2-Dimethylamino-4-methyl-pentanoic acid [1-(4-benzyloxy-benzyl)-2-(4-methyl-piperazin-1-yl)-2-oxo-ethyl]-amide]: the “IMR 32 % of Blockade @ 1 μM” value stood at 16% and the “IMR 32 % of Blockade @ 10 μM” value was found to be 31%. Consider `CC(C)CCN(C)[C@@H](CC(C)C)C(=O)N[C@@H](Cc1ccc(OCc2ccccc2)cc1)C(=O)N1CCCCC1` (relative stereo) [Example 8, [S-(R*,R*)]-4-Methyl-2-[methyl-(3-methyl-butyl)-amino]-pentanoic acid [1-(4-benzyloxy-benzyl)-2-oxo-2-piperidin-1-yl-ethyl]-amide], for which the “IMR 32 % of Blockade @ 1 μM” value under setting [1] is listed as 70%. Under setting [2], the “IMR 32 % of Blockade @ 10 μM” value came out at 87%. Regarding `CC(C)CCN(C)[C@@H](CC(C)C)C(=O)N[C@@H](Cc1ccc(OCc2ccccc2)cc1)C(=O)NCCN1CCCCC1` (relative stereo) [Example 9, [S-(R*,R*)]-4-Methyl-2-[methyl-(3-methyl-butyl)-amino]-pentanoic acid [2-(4-benzyloxy-phenyl)-1-(2-piperidin-1-yl-ethylcarbamoyl)-ethyl]-amide], the “IMR 32 % of Blockade @ 1 μM” value under setting [1] stood at 60%. For the same compound, the “IMR 32 % of Blockade @ 10 μM” value under setting [2] is on record as 89%. For the compound `CC(C)CCN(C)[C@@H](CC(C)C)C(=O)N[C@@H](Cc1ccc(OCc2ccccc2)cc1)C(=O)NC1CCN(Cc2ccccc2)CC1` (relative stereo) [Example 11, [S-(R*,R*)]-4-Methyl-2-[methyl-(3-methyl-butyl)-amino]-pentanoic acid [2-(4-benzyloxy-phenyl)-1-(1-benzyl-piperidin-4-ylcarbamoyl)-ethyl]-amide], the “IMR 32 % of Blockade @ 1 μM” value under setting [1] is 70%. Moreover, the “IMR 32 % of Blockade @ 10 μM” value under setting [2] was determined as 89%.

For `CC(C)CCN(C)[C@@H](CC(C)C)C(=O)N[C@@H](Cc1ccc(OCc2ccccc2)cc1)C(=O)N1CCN(C)CC1` (relative stereo) [Example 12, [S-(R*,R*)]-4-Methyl-2-[methyl-(3-methyl-butyl)-amino]-pentanoic acid [1-(4-benzyloxy-benzyl)-2-(4-methyl-piperazin-1-yl)-2-oxo-ethyl]-amide], the “IMR 32 % of Blockade @ 1 μM” value under setting [1] is given as 39%. In addition, the “IMR 32 % of Blockade @ 10 μM” value under setting [2] is 88%.

On to `CC(C)C[C@@H](C(=O)N[C@@H](Cc1ccc(OCc2ccccc2)cc1)C(=O)N1CCCCC1)N(C)Cc1ccc(C(C)(C)C)cc1` (relative stereo) [Example 14, [S-(R*,R*)]-2-[(4-tert-Butyl-benzyl)-methyl-amino]-4-methyl-pentanoic acid [2-(4-benzyloxy-phenyl)-1-(piperidine-1-carbonyl)-ethyl]-amide], for which the “IMR 32 % of Blockade @ 1 μM” value under setting [1] stood at 80%. Also, under setting [2], the “IMR 32 % of Blockade @ 10 μM” value is listed as 85%. The like results for `CC(C)C[C@@H](C(=O)N[C@@H](Cc1ccc(OCc2ccccc2)cc1)C(=O)NCCN1CCCCC1)N(C)Cc1ccc(C(C)(C)C)cc1` (relative stereo) [Example 15, [S-(R*,R*)]-2-[(4-tert-Butyl-benzyl)-methyl-amino]-4-methyl-pentanoic acid [2-(4-benzyloxy-phenyl)-1-(2-piperidin-1-yl-ethylcarbamoyl)-ethyl]-amide] were, in that order, 56% and 80%. With `CC(C)C[C@@H](C(=O)N[C@@H](Cc1ccc(OCc2ccccc2)cc1)C(=O)N1CCN(Cc2ccccc2)CC1)N(C)Cc1ccc(C(C)(C)C)cc1` (relative stereo) [Example 16, [S-(R*,R*)-2-[(4-tert-Butyl-benzyl)-methyl-amino]-4-methyl-pentanoic acid [1-(4-benzyloxy-benzyl)-2-(4-benzyl-piperazin-1-yl)-2-oxo-ethyl]-amide], the “IMR 32 % of Blockade @ 1 μM” value under setting [1] stood at 41%. Further, the “IMR 32 % of Blockade @ 10 μM” value under setting [2] stood at 66%. On to `CC(C)C[C@@H](C(=O)N[C@@H](Cc1ccc(OCc2ccccc2)cc1)C(=O)NC1CCN(Cc2ccccc2)CC1)N(C)Cc1ccc(C(C)(C)C)cc1` (relative stereo) [Example 17, S-(R*,R*)]-2-[(4-tert-Butyl-benzyl)-methyl-amino]-4-methyl-pentanoic acid [2-(4-benzyloxy-phenyl)-1-(1-benzyl-piperidin-4-yl-carbamoyl)-ethyl]-amide], for which, where the note is “IMR-32 cells”, the IC50 was 440 nM. `CC(C)C[C@@H](C(=O)N[C@@H](Cc1ccc(OCc2ccccc2)cc1)C(=O)N1CCN(C)CC1)N(C)Cc1ccc(C(C)(C)C)cc1` (relative stereo) [Example 18, [S-(R*,R*)]-2-[(4-tert-Butyl-benzyl)-methyl-amino]-4-methyl-pentanoic acid [1-(4-benzyloxy-benzyl)-2-(4-methyl-piperazin-1-yl)-2-oxo-ethyl]-amide]: the “IMR 32 % of Blockade @ 1 μM” value under setting [1] was found to be 52%. Further, the “IMR 32 % of Blockade @ 10 μM” value under setting [2] was 95%. As for `CC(C)C[C@@H](C(=O)N[C@@H](Cc1ccc(OCc2ccccc2)cc1)C(=O)NC(C)(C)C)N(C)C1CCCCC1` (relative stereo) [Example 19, [S-(R*,R*)]-2-(Cyclohexyl-methyl-amino)-4-methyl-pentanoic acid [2-(4-benzyloxy-phenyl)-1-tert-butylcarbamoyl-ethyl]-amide], the IC50 (IMR-32 cells) is 200 nM. For `CC(C)C[C@@H](C(=O)N[C@@H](Cc1ccc(OCc2ccccc2)cc1)C(=O)N1CCCCC1)N(C)C1CCCCC1` (relative stereo) [Example 20, [S-(R*,R*)]-2-(Cyclohexyl-methyl-amino)-4-methyl-pentanoic acid [2-(4-benzyloxy-phenyl)-1-(piperidine-1-carbonyl)-ethyl]-amide], the “IMR 32 % of Blockade @ 1 μM” value under setting [1] was determined as 65%. The “IMR 32 % of Blockade @ 10 μM” value under setting [2] amounted to 87%.
